The results in this text go back to PubChem BioAssay (NCI).

The structures appear in SMILES notation. Values joined by “and” are separate entries in the source; they are usually repeats but may differ in a detail not shown here. Equal entries are not always repeated.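 Following 48 hours of exposure in 96-well plates, responses at five concentrations were used to interpolate endpoints linearly. GI50 is the concentration that inhibits growth by half. TGI denotes the concentration required for complete inhibition of growth.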

Test systems include SK-OV-3 ovarian; NCI-H460 lung; A498 renal; COLO 205 colon; SNB-19 CNS; HT29 colon; CCRF-CEM leukemia; HOP-92 NSCLC; TK-10 renal; SR leukemia.
Holding throughout (test): growth of human tumour cells (NCI), 48 h

As to `CC(C)=CCc1cc2c(cc1O)C1=C(C(=O)C3=C(NCCS3(=O)=O)C1=O)C(C=C(C)C)O2` (centres undefined), the GI50 with SK-OV-3 ovarian is more than 16.7 µM; in the test on NCI-H460 lung it was 5.35 µM; in the test with A498 renal, more than 16.7 µM; in the test with COLO 205 colon, 5.53 µM; in the test on SNB-19 CNS it was 3.81 µM; in the test on HT29 colon it was 7.35 µM. In addition, the GI50 was 4.53 µM with CCRF-CEM leukemia, 6.89 µM in the test on HOP-92 NSCLC, more than 16.7 µM with TK-10 renal and 5.46 µM with SR leukemia. For the same molecule, the TGI with SK-OV-3 ovarian is more than 16.7 µM; in the test with NCI-H460 lung it was more than 16.7 µM; with A498 renal, more than 16.7 µM; in the test with COLO 205 colon, more than 16.7 µM; in the test with SNB-19 CNS it was 11.9 µM; in the test on HT29 colon, more than 16.7 µM. For the same molecule, the TGI with CCRF-CEM leukemia, in the test with HOP-92 NSCLC, in the test on TK-10 renal and in the test with SR leukemia was more than 16.7 µM in each case.

In the case of `C[N+]1([O-])C2CCC1CC(OC(=O)C(CO)c1ccccc1)C2` (centres undefined), the TGI in the test with SK-OV-3 ovarian, in the test with NCI-H460 lung, with A498 renal, in the test on COLO 205 colon, in the test with SNB-19 CNS and in the test on HT29 colon was more than 100 µM in each case. For the same molecule, the TGI with CCRF-CEM leukemia, in the test on HOP-92 NSCLC, in the test on TK-10 renal and with SR leukemia was more than 100 µM in each case.

For the molecule `Cn1cc(-c2ccc3nc(-c4ccc(CC(=O)Nc5cc(C(C)(C)C)no5)cc4)cnc3c2)cn1`, the GI50 is 0.0938 µM with SK-OV-3 ovarian; 0.0289 µM in the test on NCI-H460 lung; 0.0439 µM in the test with A498 renal; more than 1.48 µM with SNB-19 CNS; 0.0859 µM in the test on HT29 colon; 0.692 µM with CCRF-CEM leukemia. In addition, the values for the GI50 with HOP-92 NSCLC, in the test on TK-10 renal and in the test with SR leukemia were 0.0495 µM, 0.0139 µM and less than 0.0445 µM, respectively. Also, the TGI is 0.712 µM in the test on SK-OV-3 ovarian; more than 3 µM with NCI-H460 lung; 0.185 µM in the test on A498 renal; more than 3 µM with COLO 205 colon; more than 3 µM with SNB-19 CNS; more than 3 µM in the test on HT29 colon. Besides, the TGI with CCRF-CEM leukemia, with HOP-92 NSCLC, in the test on TK-10 renal and with SR leukemia was more than 3 µM each time.

With `O=[N+]([O-])c1ccc(C2=NCCO2)cc1`, the GI50 in the test with SK-OV-3 ovarian, in the test on NCI-H460 lung, in the test with A498 renal, with COLO 205 colon, in the test with SNB-19 CNS and in the test on HT29 colon was more than 100 µM in each case. Further, the GI50 in the test with CCRF-CEM leukemia was 3.15 µM; in the test on HOP-92 NSCLC it was more than 100 µM; with TK-10 renal it was more than 100 µM; with SR leukemia, more than 100 µM. Moreover, the TGI with SK-OV-3 ovarian, in the test with NCI-H460 lung, in the test on A498 renal, in the test on COLO 205 colon, in the test with SNB-19 CNS and in the test with HT29 colon was more than 100 µM in each case. In addition, the TGI in the test on CCRF-CEM leukemia, with HOP-92 NSCLC, in the test on TK-10 renal and in the test on SR leukemia was more than 100 µM throughout.

Turning to `COc1ccc(-c2csc3c2-n2cccc2C3=O)cc1`, the TGI in the test with SK-OV-3 ovarian is 5.98 µM and 25.3 µM; in the test on NCI-H460 lung, more than 43 µM; in the test with A498 renal, 1.17 µM and 3.15 µM; in the test on COLO 205 colon, 5.78 µM; in the test on SNB-19 CNS, more than 100 µM; in the test on CCRF-CEM leukemia it was more than 100 µM. Also, the TGI with HOP-92 NSCLC and in the test on TK-10 renal was more than 100 µM in each case. Moreover, the GI50 in the test with NCI-H460 lung is 0.273 µM; in the test with A498 renal, 0.124 µM; with SNB-19 CNS it was 0.0394 µM; with HT29 colon it was 0.00571 µM; in the test with CCRF-CEM leukemia, 0.0299 µM; with HOP-92 NSCLC, 0.0919 µM. Further, in the test on SR leukemia, the GI50 was 0.00314 µM.

On to `CS(=O)(=O)OCCN(CCOS(C)(=O)=O)c1ccc(C=Nc2ccc(-c3csc(COc4ccccc4)n3)cc2)cc1`, for which the TGI came out at 12.2 µM with SK-OV-3 ovarian; 2.1 µM in the test on NCI-H460 lung; 7.48 µM in the test with A498 renal; 6.98 µM in the test with COLO 205 colon; 32.6 µM in the test with SNB-19 CNS; 23.6 µM in the test with HT29 colon. Moreover, the TGI in the test on CCRF-CEM leukemia came out at 35.6 µM; in the test on HOP-92 NSCLC, 35 µM; in the test with TK-10 renal it was 12.5 µM; in the test on SR leukemia it was 15.5 µM.

As to `CC1(C)N=C(N)N=C(N)N1c1ccc(OCCCNC(=O)Nc2ccc(S(=O)(=O)F)cc2)c(Cl)c1`, the GI50 in the test on SK-OV-3 ovarian is 8.83 µM; in the test on NCI-H460 lung, 0.0486 µM; in the test on A498 renal, 4.57 µM; in the test on COLO 205 colon it was 0.854 µM; with SNB-19 CNS, 1.08 µM; with HT29 colon, 0.1 µM. In addition, the GI50 with CCRF-CEM leukemia was 0.208 µM; in the test on HOP-92 NSCLC, 2.74 µM; with TK-10 renal it was 0.907 µM; in the test on SR leukemia, 0.0376 µM. Besides, the TGI with SK-OV-3 ovarian is more than 100 µM; in the test on NCI-H460 lung, more than 37.6 µM; with A498 renal it was 99.4 µM; in the test on COLO 205 colon, more than 100 µM; in the test on SNB-19 CNS, more than 100 µM; with HT29 colon, more than 100 µM. In addition, the TGI in the test on CCRF-CEM leukemia was more than 100 µM; in the test with HOP-92 NSCLC, 61.9 µM; in the test on TK-10 renal, more than 100 µM; in the test with SR leukemia, more than 100 µM.

As for `Cc1ccc(N)c(S)c1`, the TGI amounted to 70.8 µM with SK-OV-3 ovarian; 49.9 µM in the test on NCI-H460 lung; 38.6 µM in the test with A498 renal; 52.9 µM with COLO 205 colon; 36.7 µM in the test with SNB-19 CNS; 33.8 µM with HT29 colon. Also, the TGI with CCRF-CEM leukemia was more than 100 µM; with HOP-92 NSCLC, 30.2 µM; with TK-10 renal it was 43.1 µM; in the test on SR leukemia, 45.8 µM.

`CC(=O)/C(=C\c1ccc(Cl)cc1)c1ccccc1`: the GI50 with SK-OV-3 ovarian is 0.0942 µM; with NCI-H460 lung it was 0.0845 µM; in the test on A498 renal, 0.0309 µM; in the test with COLO 205 colon it was 0.141 µM; with SNB-19 CNS, 0.344 µM; in the test on HT29 colon, 0.14 µM. Also, the GI50 with CCRF-CEM leukemia was 0.0534 µM; in the test with HOP-92 NSCLC, 0.12 µM; in the test on TK-10 renal, 2.76 µM; in the test with SR leukemia, 0.0415 µM. Also, the TGI is more than 100 µM in the test on SK-OV-3 ovarian; 13.5 µM in the test with NCI-H460 lung; 0.378 µM in the test on A498 renal; 0.474 µM with COLO 205 colon; more than 100 µM with SNB-19 CNS; more than 61.7 µM in the test on HT29 colon. The TGI in the test on CCRF-CEM leukemia is more than 100 µM; in the test on HOP-92 NSCLC, more than 26.2 µM; with TK-10 renal, more than 66.6 µM; in the test on SR leukemia, more than 49.7 µM.
